The results in this text go back to publication PMC11395333, “The Bifunctional Dimer Caffeine-Indan Attenuates α-Synuclein Misfolding, Neurodegeneration and Behavioral Deficits after Chronic Stimulation of Adenosine A1 Receptors” (International Journal of Molecular Sciences, 2024).

Test [1] concerns SN pars compacta and hippocampal CA1 neurons. The experiment in a line: Fluoro-Jade C staining of brain slices (neurodegeneration). The format is in vivo, rat. The text has this:
All animals were housed and treated humanely following the guidelines from the following governing bodies: National Research Council (US) Committee for the Update of the Guide for the Care and Use of Laboratory Animals (Washington DC, USA, 2011); Canadian Council on Animal Care (CCAC); and the University of Saskatchewan Animal Research Ethics Board (AREB), which approved our Animal Use Protocol (#20070090 and #20170079). The animals were housed in cages of two, with access to food pellets and water ad libitum. The four treatments of the Sprague-Dawley rats consisted of the following: 1. Control (0.1% DMSO in 0.9% saline); 2. CPA; 3. […] Drugs were dissolved at 3 mg/mL in DMSO, and each drug was administered to the animals by daily i.p. injections (3 mg/kg or 5 mg/kg body weight) for 7 consecutive days. […] Then, on days 8 and 9 following the final injections, the animals were subjected to several behavioral tests. Fluro-Jade C (FJC) is a fluorescent marker for neurodegeneration (Millipore-Sigma, Oakville, ON, Canada; Cat# AG325). […] Initially, the microscope slides were immersed in 1% NaOH/80% ethanol for 5 min followed by 2 min immersion in 70% ethanol. The slides were then rinsed for 2 min with ultra-pure water. The microscope slides were further immersed in 0.06% KMnO4 for 10 min, followed by an additional rinse for 2 min with ultra-pure water. The slides were then stained with 0.004% FJC in 0.1% acetic acid for 20 min with gentle shaking on an orbital shaker. Lastly, the slides were rinsed three times in ultra-pure water for 1 min each, making sure to remove all the excess water after each rinse. The slides were then rinsed in xylene and allowed to dry overnight at 4 °C. Then they were treated with Prolong Gold Antifade Reagent from Invitrogen (Thermo Fisher Scientific, Waltham, MA, USA), and respective images were taken using a Zeiss LSM700 confocal microscope (Carl Zeiss Group, Canada) and analyzed with ImageJ (Public Domain). FJC fluorescence was obtained by exciting the dye with a 488 nm laser.

Another test deals with male Sprague-Dawley rats. Description: Forced swim test after 7-day chronic i.p. CPA injection. In kind it is in vivo, rat. From the text:
All animals were housed and treated humanely following the guidelines from the following governing bodies: National Research Council (US) Committee for the Update of the Guide for the Care and Use of Laboratory Animals (Washington DC, USA, 2011); Canadian Council on Animal Care (CCAC); and the University of Saskatchewan Animal Research Ethics Board (AREB), which approved our Animal Use Protocol (#20070090 and #20170079). The animals were housed in cages of two, with access to food pellets and water ad libitum. The four treatments of the Sprague-Dawley rats consisted of the following: 1. Control (0.1% DMSO in 0.9% saline); 2. CPA; 3. […] Drugs were dissolved at 3 mg/mL in DMSO, and each drug was administered to the animals by daily i.p. injections (3 mg/kg or 5 mg/kg body weight) for 7 consecutive days. […] Then, on days 8 and 9 following the final injections, the animals were subjected to several behavioral tests. The forced swim test is used to assess depressive behavior such as despair and learned helplessness. The test is also used to assess the vigor and the ability of the animal to keep its head above the water in which the animals swim. In addition, the first and last three minutes of the test were manually scored for the ability of the rat to swim with all its four limbs. […] In addition, the ability of the animal to keep its head above water was scored. […] The forced swim test apparatus was a plexiglass cuboid measuring 30 cm in length, 30 cm in width and 60 cm in depth. The tank was then filled two-thirds with lukewarm water not exceeding 25 °C. Afterwards, the animal was left in the cylinder for 10 min during which its time spent immobile as well as its ability to swim and keep its head above water was analyzed. This trial was then used to calculate the percentage of time the animals spent immobile, as well as the vigor and success with which the animal swam. A video camera was used to record the animal movement in this test. The forced swim test was conducted the following day (day nine), giving the animals a sufficient resting period from the Y-maze and open field tests. Each experiment was repeated at least fifteen times per treatment, and the average of each treatment is presented in the bar graphs as average means ± SEM.

The mark [2] stands for this setting: CPA 3 mg/kg i.p. daily for 7 days, alone.
Where [3] appears, read: 3 or 5 mg/kg i.p. with 3 mg/kg CPA, 7 days.

As for `OC[C@H]1O[C@@H](n2cnc3c(NC4CCCC4)ncnc32)[C@H](O)[C@@H]1O` [CPA, N^6-Cyclopentyladenosine, reference compound], in test [1] (setting [2]), the “FJC fluorescence in SNc” value was “increased the levels of FJC fluorescence compared to the control” and the “FJC, degenerating neurons in CA1 region of the hippocampus” value is listed as “much higher levels of degenerating CA1 pyramidal neurons compared to the control”. The “Forced swim test, motor deficits” value in the test with male Sprague-Dawley rats (setting [2]) was “induced an increase in motor deficits”.

Take `Cn1c(=O)c2c(nc(CCCCCCNC3CCc4ccccc43)n2C)n(C)c1=O` (centres unmarked) [C8–6–I]: in test [1] (3 mg/kg and 5 mg/kg + CPA), the “FJC staining in SNc” value is recorded as “did not significantly increase FJC staining compared to the vehicle control slices”. The “FJC, neurodegeneration in CA1 region of the hippocampus” value in test [1] (3 mg/kg or 5 mg/kg with CPA) is “prevented neurodegeneration in hippocampal slices”. Besides, the “Forced swim test, vigor and success scores” value in the test on male Sprague-Dawley rats (5 mg/kg i.p. with 3 mg/kg CPA, 7 days) was “significantly improved the ability to purposely swim and use all limbs, as well as the ability to keep their head above water”. Moreover, in the test on male Sprague-Dawley rats (setting [3]), the “Forced swim test, immobility time” value is “spent significantly less time being immobile compared to the CPA-treated rats” and the “Forced swim test, motor deficits” value is reported as “produced no significant motor deficits”.
